Laboratory results as given in article PMC12357248, “Selectively targeting BCL6 using a small-molecule inhibitor is a potential therapeutic strategy for glioblastoma” (Genes & Diseases, 2025).

Key:
[1] = test system: SF268; assay: MTS cell viability assay; assay type: cell-based; settings: Homo sapiens, SF-268
Experimental: (§1) Cell viability was tested by MTS assay (Promega, USA). 8000 cells were seeded in a 96-well plate and then treated with compounds for 72 h, followed by the addition of 20 μL of MTS and incubation at 37 °C for 2–3 h. Absorbance at 490 nm is measured with the SpectraMax 190 plate reader, and the IC50 value is calculated by GraphPad Prism. In the drug combination assay, combination index (CI) values were calculated using CalcuSyn software. A CI value greater than 1 has a drug antagonistic effect, and a value less than 1 has a synergistic effect.

[2] = test system: U251; assay: MTS cell viability assay; assay type: cell-based; settings: Homo sapiens, U-251
Experimental: as §1

[3] = test system: U87-MG; assay: MTS cell viability assay; assay type: cell-based; settings: Homo sapiens, U-87 MG
Experimental: as §1

[4] = target: BCL6^BTB/SMRT interaction (Homo sapiens, UniProt P41182); assay: HTRF assay, BCL6-BTB/SMRT interaction; assay type: binding
[5] = target: T1, BCL6^BTB (Homo sapiens, UniProt P41182); assay: Luciferase reporter assay, BCL6-BTB-mediated transcriptional repression; assay type: cell-based; settings: even at 20 μM
T1 construct: expressed in transfected cells

[6] = target: T2, eGFP-BCL6 (FL) (Homo sapiens, UniProt P41182); assay: BCL6-eGFP-mCherry stability reporter in HEK293T cells; assay type: cell-based; settings: 1 μM
T2 construct: a gene encoding the full-length BCL6 protein fused to eGFP; expressed in transfected cells; host or cells: HEK293T

[7] = test system: BCL6; assay: Western blotting of BCL6 after TMZ treatment; assay type: cell-based; settings: U251, SF268, U87-MG, 24 h
Experimental: Cell lines were treated with drugs, and tumor tissues were collected in a Ripa lysis buffer. Western blotting was performed using antibodies against BCL6 (14895S, Cell Signaling Technology), PARP (poly(ADP-Ribose) polymerase; 9532S, Cell Signaling Technology), γH2AX (phosphorylated form of H2A.X variant histone; 9718S, Cell Signaling Technology), phospho-ERK (4370S, Cell Signaling Technology), ERK (extracellular signal-regulated kinase; 4695T, Cell Signaling Technology), phospho-AKT (4060S, Cell Signaling Technology), AKT (9272S, Cell Signaling Technology), GAPDH (AB0036, ABWAYS), BCL2 (T40056F, ABWAYS), c-MYC (CY5150, ABWAYS).

[8] = test system: U87-MG-Luc xenograft; assay: Intracranial (orthotopic) U87-MG-Luc GBM xenograft; assay type: in vivo, BALB/c nude mice; settings: TMZ 5 mg/kg, YK01 12.5 mg/kg, intraperitoneally
Text: An orthotopic U87-MG GBM-bearing mouse model of BALB/c nude mice was created. Five microlitres of U87-MG-Luc cells (1 × 10^5 cells) were implanted into the left striatum of anaesthetized animals. The burr hole was then filled with bone wax, and the scalp was closed with tissue glue. To assess the growth of the glioma, bioluminescence imaging (in vivo imaging system, Lumina III) was used to determine its size. […]

Structure (SMILES): O=C(O)CCN1C(=O)/C(=C2/C(=O)Nc3ccc(Cl)cc32)SC1=S [FX1]
- IC50 [1]: 43.9 ± 1.23 µM
- IC50 [2]: 37.4 ± 1.41 µM
- IC50 [3]: 32 ± 1.12 µM

Structure (SMILES): CNC(=O)COc1cc2cc(Nc3nc(N4C[C@H](C)C[C@H](C)C4)ncc3Cl)ccc2n(C)c1=O [BI3802]
- IC50 [4]: 0.0027 µM
- effect on BCL6^BTB [5]: little effect
- effect on eGFP-BCL6 (FL) reporter [6]: degradation

Structure (SMILES): Cn1nnc2c(C(N)=O)ncn2c1=O [TMZ, temozolomide]
- BCL6 expression [7]: up-regulated
- U87-MG-luci xenograft growth (bioluminescence) [8]: improved
